Some targets named below: CYP2C19 (Homo sapiens, UniProt P33261); CYP2C9 (Homo sapiens, UniProt P11712); hERG potassium channel (Homo sapiens, UniProt Q12809); CYP1A2 (Homo sapiens, UniProt P05177).
Series [1] has as its target Seritonin (5-Hydroxytryptamine) 5-HT2B (Homo sapiens, UniProt P41595). In kind it is binding. To be noted: 10 μM compound, Hit Profile Panel.
The next series is described as follows: Tolerability studies. In kind it is in vivo. To be noted: data not shown.
Series [2] deals with Nicotinic Acetylcholine a1, Bungarotoxin (Homo sapiens, UniProt P02708+P07510+Q07001). The series is classed as binding. The note with it: for inhibition at 10 µM: read-out: % Inhibition, Nicotinic Acetylcholine a1, Bungarotoxin.
Sequence of Nicotinic Acetylcholine a1, Bungarotoxin (P02708 21-457): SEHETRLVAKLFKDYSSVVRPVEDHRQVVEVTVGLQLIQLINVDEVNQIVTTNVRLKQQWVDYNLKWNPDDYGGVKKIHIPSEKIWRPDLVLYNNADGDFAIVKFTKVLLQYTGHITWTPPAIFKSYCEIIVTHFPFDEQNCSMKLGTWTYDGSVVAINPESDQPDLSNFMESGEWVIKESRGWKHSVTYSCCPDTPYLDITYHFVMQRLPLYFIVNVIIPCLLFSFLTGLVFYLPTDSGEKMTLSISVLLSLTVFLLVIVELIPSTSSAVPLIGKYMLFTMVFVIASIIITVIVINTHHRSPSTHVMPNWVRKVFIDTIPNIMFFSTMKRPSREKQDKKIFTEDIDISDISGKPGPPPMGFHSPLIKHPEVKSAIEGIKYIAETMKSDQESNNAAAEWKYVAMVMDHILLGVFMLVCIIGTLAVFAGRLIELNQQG
Sequence of Nicotinic Acetylcholine a1, Bungarotoxin (P07510 23-517): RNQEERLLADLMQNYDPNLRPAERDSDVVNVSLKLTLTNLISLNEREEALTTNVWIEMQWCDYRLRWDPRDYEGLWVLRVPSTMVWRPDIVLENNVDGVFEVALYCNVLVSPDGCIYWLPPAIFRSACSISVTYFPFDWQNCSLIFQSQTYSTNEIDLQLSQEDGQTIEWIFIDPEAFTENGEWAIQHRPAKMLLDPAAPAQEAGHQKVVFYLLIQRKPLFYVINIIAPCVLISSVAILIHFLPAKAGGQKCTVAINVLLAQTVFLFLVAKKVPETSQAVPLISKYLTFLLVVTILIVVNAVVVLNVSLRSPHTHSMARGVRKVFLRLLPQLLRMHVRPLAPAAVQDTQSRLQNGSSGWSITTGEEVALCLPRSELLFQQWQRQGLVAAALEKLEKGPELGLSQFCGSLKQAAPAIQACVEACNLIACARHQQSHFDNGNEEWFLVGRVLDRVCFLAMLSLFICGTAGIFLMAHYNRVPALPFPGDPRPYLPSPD
Sequence of Nicotinic Acetylcholine a1, Bungarotoxin (Q07001 22-517): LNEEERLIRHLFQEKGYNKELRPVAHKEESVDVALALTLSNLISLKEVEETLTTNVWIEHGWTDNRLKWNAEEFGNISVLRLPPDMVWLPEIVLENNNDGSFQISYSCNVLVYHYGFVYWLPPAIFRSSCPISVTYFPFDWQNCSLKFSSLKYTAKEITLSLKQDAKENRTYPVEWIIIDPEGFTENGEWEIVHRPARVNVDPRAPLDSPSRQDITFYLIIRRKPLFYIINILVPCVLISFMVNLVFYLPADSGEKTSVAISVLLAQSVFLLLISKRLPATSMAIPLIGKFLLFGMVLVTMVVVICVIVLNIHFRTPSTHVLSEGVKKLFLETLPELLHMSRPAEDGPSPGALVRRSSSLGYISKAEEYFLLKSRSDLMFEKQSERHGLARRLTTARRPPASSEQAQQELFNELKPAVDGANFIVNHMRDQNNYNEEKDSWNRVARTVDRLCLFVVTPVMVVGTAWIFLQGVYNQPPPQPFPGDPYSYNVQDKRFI
Sequence of Nicotinic Acetylcholine a1, Bungarotoxin (P11230 24-501, further chain): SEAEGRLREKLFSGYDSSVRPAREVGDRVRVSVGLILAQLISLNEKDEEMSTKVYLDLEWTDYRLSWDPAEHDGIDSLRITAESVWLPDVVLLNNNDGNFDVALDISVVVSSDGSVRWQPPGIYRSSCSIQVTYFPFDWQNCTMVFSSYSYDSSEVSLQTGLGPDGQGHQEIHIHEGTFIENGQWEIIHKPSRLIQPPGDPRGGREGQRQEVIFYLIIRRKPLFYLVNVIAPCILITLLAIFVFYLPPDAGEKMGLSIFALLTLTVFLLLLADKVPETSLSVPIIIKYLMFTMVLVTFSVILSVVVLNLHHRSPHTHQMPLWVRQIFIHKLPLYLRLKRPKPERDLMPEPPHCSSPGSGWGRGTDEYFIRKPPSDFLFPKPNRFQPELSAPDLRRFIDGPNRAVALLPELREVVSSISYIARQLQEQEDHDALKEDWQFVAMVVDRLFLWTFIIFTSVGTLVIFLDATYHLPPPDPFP
The next series addresses CYP450, 2C9 (Homo sapiens, UniProt P11712). To be noted: 10 µM.
For another series, the target named is Prostanoid EP4 (Homo sapiens, UniProt P35408). The series is classed as binding. The note with it: 10 μM compound, Hit Profile Panel.
Sequence of Prostanoid EP4 (P35408 whole entry): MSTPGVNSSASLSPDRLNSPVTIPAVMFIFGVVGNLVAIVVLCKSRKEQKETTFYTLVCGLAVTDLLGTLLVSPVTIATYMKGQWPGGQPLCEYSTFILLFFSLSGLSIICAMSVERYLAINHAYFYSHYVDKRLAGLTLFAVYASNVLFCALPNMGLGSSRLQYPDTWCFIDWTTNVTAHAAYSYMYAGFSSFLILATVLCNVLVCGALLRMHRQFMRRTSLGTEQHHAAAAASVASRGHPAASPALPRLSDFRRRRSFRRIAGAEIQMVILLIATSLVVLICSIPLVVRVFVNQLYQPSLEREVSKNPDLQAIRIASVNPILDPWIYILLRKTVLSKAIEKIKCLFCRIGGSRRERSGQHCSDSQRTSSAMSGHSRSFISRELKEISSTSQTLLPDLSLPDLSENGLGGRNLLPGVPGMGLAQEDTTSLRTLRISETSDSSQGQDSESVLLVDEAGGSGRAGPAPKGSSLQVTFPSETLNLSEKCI
The next series has as its target T1, Adenosine A1 (Homo sapiens, UniProt P30542).
T1 sequence (P30542 1-326): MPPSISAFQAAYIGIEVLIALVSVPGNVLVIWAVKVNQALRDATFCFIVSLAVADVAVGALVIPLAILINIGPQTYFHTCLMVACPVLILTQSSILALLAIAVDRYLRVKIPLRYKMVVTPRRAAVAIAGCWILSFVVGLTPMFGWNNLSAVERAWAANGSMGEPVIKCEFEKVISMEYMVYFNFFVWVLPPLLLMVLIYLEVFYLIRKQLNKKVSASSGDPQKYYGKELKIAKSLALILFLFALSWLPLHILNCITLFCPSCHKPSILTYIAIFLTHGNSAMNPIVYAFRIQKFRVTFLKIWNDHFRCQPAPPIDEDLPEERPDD
The series is classed as binding. To be noted: 10 μM compound, Hit Profile Panel.

The test system of a further series is GABAA, Muscimol, Central. The series is classed as binding. The note with it: rat; 10 μM compound; Hit Profile Panel.
The target of the next series is Potassium Channel (KATP) (Cricetus cricetus, UniProt Q09427). The series is classed as binding. The note with it: hamster; 10 μM compound; Hit Profile Panel.
Sequence of Potassium Channel (KATP) (Q09427 whole entry): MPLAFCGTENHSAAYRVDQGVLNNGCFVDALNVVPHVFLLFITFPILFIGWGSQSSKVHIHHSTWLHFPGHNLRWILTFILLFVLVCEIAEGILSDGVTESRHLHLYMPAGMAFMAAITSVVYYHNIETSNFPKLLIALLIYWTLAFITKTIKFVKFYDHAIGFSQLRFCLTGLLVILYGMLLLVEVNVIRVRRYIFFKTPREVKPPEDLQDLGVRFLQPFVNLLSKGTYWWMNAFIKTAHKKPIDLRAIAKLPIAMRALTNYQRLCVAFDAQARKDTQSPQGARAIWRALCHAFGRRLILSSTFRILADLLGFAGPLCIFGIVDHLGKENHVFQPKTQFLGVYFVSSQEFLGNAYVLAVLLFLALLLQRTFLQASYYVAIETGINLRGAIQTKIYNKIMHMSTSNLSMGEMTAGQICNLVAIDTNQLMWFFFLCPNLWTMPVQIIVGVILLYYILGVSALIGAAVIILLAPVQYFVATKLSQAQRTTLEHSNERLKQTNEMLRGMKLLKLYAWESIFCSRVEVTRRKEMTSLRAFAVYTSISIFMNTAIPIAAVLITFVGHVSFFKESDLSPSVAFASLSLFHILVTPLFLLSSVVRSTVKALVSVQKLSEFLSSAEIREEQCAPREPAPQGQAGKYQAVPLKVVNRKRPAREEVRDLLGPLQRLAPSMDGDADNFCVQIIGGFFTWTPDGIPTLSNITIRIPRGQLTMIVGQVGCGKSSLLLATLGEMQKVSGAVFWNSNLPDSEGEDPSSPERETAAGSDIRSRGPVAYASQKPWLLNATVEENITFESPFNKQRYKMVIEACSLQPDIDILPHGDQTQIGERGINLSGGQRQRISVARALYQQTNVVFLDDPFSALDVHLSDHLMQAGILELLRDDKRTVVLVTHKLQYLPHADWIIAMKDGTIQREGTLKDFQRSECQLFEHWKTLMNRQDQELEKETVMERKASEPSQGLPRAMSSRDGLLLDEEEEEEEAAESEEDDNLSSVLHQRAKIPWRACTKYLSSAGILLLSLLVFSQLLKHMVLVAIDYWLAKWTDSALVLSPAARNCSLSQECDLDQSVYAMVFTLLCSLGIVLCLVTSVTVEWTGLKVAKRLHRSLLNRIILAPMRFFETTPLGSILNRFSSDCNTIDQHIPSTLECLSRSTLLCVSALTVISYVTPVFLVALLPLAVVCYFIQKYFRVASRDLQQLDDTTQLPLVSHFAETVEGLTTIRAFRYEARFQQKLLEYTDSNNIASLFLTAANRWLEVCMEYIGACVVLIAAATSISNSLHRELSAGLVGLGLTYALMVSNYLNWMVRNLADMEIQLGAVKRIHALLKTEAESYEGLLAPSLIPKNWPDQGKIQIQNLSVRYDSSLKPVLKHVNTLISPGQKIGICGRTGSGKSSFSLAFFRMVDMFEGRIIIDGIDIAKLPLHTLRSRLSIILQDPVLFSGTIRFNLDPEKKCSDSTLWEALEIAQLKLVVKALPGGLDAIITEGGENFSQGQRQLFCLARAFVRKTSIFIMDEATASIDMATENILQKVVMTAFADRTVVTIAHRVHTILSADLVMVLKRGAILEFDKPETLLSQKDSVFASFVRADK
The target of another series is Histamine, H1 (Homo sapiens, UniProt P35367). In kind it is binding. To be noted: 10 μM compound, Hit Profile Panel.
Sequence of Histamine, H1 (P35367 whole entry): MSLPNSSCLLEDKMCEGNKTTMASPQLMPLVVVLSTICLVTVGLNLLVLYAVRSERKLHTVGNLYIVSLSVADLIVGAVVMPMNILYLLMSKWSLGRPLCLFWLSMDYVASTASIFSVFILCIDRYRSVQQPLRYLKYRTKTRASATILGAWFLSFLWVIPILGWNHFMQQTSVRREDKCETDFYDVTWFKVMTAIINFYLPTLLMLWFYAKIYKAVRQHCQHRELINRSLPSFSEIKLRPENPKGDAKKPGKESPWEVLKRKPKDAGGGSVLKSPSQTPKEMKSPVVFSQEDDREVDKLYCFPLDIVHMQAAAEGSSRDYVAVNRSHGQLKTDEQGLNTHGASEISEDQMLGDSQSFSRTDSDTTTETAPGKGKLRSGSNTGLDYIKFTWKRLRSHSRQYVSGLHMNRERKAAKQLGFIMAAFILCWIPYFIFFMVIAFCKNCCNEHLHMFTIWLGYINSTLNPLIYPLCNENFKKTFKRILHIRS
The next series concerns the target T2, Adrenergic α2A (Homo sapiens, UniProt P08913).
T2 sequence (P08913 1-465): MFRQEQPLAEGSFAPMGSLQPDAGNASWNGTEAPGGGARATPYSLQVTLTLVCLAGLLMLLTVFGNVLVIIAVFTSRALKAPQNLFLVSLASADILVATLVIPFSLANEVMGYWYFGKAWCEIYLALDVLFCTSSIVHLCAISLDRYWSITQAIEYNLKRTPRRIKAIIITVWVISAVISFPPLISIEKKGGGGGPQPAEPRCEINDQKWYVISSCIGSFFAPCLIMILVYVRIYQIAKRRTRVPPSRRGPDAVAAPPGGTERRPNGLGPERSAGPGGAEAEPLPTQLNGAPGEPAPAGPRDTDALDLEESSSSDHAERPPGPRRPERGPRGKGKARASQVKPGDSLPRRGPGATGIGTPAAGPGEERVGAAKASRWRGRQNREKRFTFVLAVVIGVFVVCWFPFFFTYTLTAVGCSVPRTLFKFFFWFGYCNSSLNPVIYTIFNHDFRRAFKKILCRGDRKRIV
In kind it is binding. The note with it: 10 μM compound, Hit Profile Panel.

The target in a further series is CYP450, 2C19 (Homo sapiens, UniProt P33261). To be noted: 10 µM.
The target in the next series is CYP450, 1A2 (Homo sapiens, UniProt P05177). The note with it: 10 µM.
For series [3], the system named is MRSA strain BAA-1717 (TCH1516; USA300). The experiment in a line: Murine efficacy, neutropenic thigh model. The series is classed as in vivo, mouse. The note with it: 25 mg/kg PO once 2 h after infection; CFU 24 hrs post dosage; compared to untreated controls.
The target of a further series is Sigma σ1 (Homo sapiens, UniProt Q99720). In kind it is binding. The note with it: 10 μM compound, Hit Profile Panel.
Sequence of Sigma σ1 (Q99720 whole entry): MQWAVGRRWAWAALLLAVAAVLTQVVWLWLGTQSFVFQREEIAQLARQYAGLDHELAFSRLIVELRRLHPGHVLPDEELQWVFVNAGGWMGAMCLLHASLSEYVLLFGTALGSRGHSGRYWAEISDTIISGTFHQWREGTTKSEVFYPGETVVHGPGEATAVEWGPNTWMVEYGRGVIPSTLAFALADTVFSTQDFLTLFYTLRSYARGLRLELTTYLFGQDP
The target in a further series is Potassium Channel hERG (Homo sapiens, UniProt Q12809). To be noted: 10 µM.
Series [4] concerns the target Transporter, Norepinephrine (NET) (Homo sapiens, UniProt P23975). The series is classed as binding. The note with it: 10 μM compound, Hit Profile Panel.
For a further series, the system named is Imidazoline I2, Central. The series is classed as binding. The note with it: rat; 10 μM compound; Hit Profile Panel.
A short description of series [5]: Single dose PK (IV and PO). To be noted: mice, 10 mg/kg PO. In kind it is in vivo.
A further series relates to N. gonorrhoeae. In words: MIC (Table 2B). In kind it is cell-based. The note with it: Neisseria gonorrhoeae; Table 2B, strain not given; read-out: N. gonorrhoeae MIC.
A further series has as its system 36 mammalian receptors. The series is classed as binding. To be noted: 10 μM; every receptor of the panel.

Structures are written as SMILES. Values after ≈ are worked out from the molar mass of the structure shown.

Take `O=C(Nc1nnc(-c2ccc(F)cc2)o1)N1CCc2ccccc2C1` [MBX-4132]: the “% Inhibition, Seritonin (5-Hydroxytryptamine) 5-HT2B” value in series [1] amounted to 53%. Further, the “elevated single dose tolerability” value in “Tolerability studies” (100 mg/kg, PO, observed 24 h) is “no effects distinct from vehicle controls”. The multidose tolerability entry in “Tolerability studies” (seven days of dosing at 25 mg/kg, SC, BID, observed 10 days) is on record as “no effects distinct from vehicle controls”. For the same molecule, in [2] (human, 10 μM compound, Hit Profile Panel), the “% Inhibition, Nicotinic Acetylcholine a1, Bungarotoxin” value stood at 0%. The “% Inhibition, CYP450, 2C9” value at CYP450, 2C9 was determined as 10%. Besides, at Prostanoid EP4, the “% Inhibition, Prostanoid EP4” value was 18%. Also, the “% Inhibition, Adenosine A1” value on Adenosine A1 is reported as 48%. The “% Inhibition, GABAA, Muscimol, Central” value with GABAA, Muscimol, Central stood at 1%. In addition, the “% Inhibition, Potassium Channel (KATP)” value at Potassium Channel (KATP) came to 10%. Besides, at Histamine, H1, the “% Inhibition, Histamine, H1” value came out at 17%. Also, the “% Inhibition, Adrenergic α2A” value on Adrenergic α2A turned out to be 54%. Further, the “% Inhibition, CYP450, 2C19” value on CYP450, 2C19 is 44%. Also, on CYP450, 1A2, the “% Inhibition, CYP450, 1A2” value was 9%. In series [3], the “drop in CFU/g” value is on record as above 2 log. Further, the “% Inhibition, Sigma σ1” value at Sigma σ1 is given as −4%. Also, the “% Inhibition, Potassium Channel hERG” value on Potassium Channel hERG was 64%. Besides, the “% Inhibition, Transporter, Norepinephrine (NET)” value in series [4] was 50%. The “% Inhibition, Imidazoline I2, Central” value in the series on Imidazoline I2, Central was 33%. The “bioavailability, available from oral dosing” value in series [5] is given as above 75%.
What is called inhibition is the change of the read-out against control, counted positive when it falls. The term MIC denotes the smallest concentration in the dilution series that meets the test's criterion for growth inhibition. For the molecule `O=C(Nc1nnc(-c2ccc(F)cc2)o1)c1ccc(OC2CCCCC2)cc1` [compound 4292], the inhibition at 10 µM at CYP2C19 was 9%; in series [1] it was -7%; in series [2], -4%; at Prostanoid EP4 it was 28%; against Adenosine A1, 8%; on Potassium Channel (KATP), 8%. Also, the inhibition at 10 µM was -8% against Histamine, H1; 3% against Adrenergic α2A; 10% at CYP2C9; 8% against hERG potassium channel; 10% at Sigma σ1; 5% against CYP1A2. Also, the inhibition at 10 µM in series [4] turned out to be 77%. Besides, the minimal inhibitory concentration (MIC) with N. gonorrhoeae was determined as 0.09 µg/mL (≈ 0.236 µM). In the series with GABAA, Muscimol, Central, the “% Inhibition, GABAA, Muscimol, Central” value is on record as −4%. Further, the “% Inhibition, Imidazoline I2, Central” value in the series on Imidazoline I2, Central was 10%.
For the molecule `O=C(Nc1nnc(-c2ccc(F)cc2)o1)N1CC=C(C(F)(F)F)CC1` [compound 4347], the inhibition at 10 µM against CYP2C19 was 8%; in series [1] it was -1%; in [2], 2%; at Prostanoid EP4 it was -4%; on Adenosine A1 it was -4%; on Potassium Channel (KATP) it was 2%. For the same molecule, the inhibition at 10 µM at Histamine, H1 is 22%; at Adrenergic α2A, 9%; on CYP2C9, 4%; against hERG potassium channel, 0%; at Sigma σ1 it was -2%; at CYP1A2, 2%. For the same molecule, the inhibition at 10 µM in series [4] turned out to be 32%. The “% Inhibition, GABAA, Muscimol, Central” value with GABAA, Muscimol, Central is reported as 4%. Moreover, in the series on 36 mammalian receptors, the “inhibition of the 36 mammalian receptors” value is on record as below 50%. The “% Inhibition, Imidazoline I2, Central” value with Imidazoline I2, Central is on record as −5%.
